From patent US20260048047A1, “SMALL-MOLECULE ACTIVATORS OF MYCOBACTERIUM TUBERCULOSIS ADENYLYL CYCLASE” (priority 2022, published 2026)

System: M. tuberculosis
Experiment: Extracellular activity against M. tuberculosis in cholesterol media (Alamar Blue reduction assay)
Assay type: cell-based, Mycobacterium tuberculosis
Conditions: Mycobacterium tuberculosis, 240 h, 7H12-Cholesterol media, 10 days; read-out: Cholesterol broth: alamar blue--EC50

SMILES | EC50 [nM]
Cn1ncnc1CC(=O)N1CCC(c2nc(-c3ccc(Cl)c(Cl)c3)no2)CC1 [Compound 164, 1-(4-(3-(3,4-dichlorophenyl)-1,2,4-oxadiazol-5-yl)piperidin-1-yl)-2-(1-methyl-1H-1,2,4-triazol-5-yl)ethan-1-one] | 64.7
Cn1ncnc1CC(=O)N1CCC(n2nnc(-c3ccc(Cl)c(Cl)c3)n2)CC1 [Compound 165, 1-(4-(5-(3,4-dichlorophenyl)-2H-tetrazol-2-yl)piperidin-1-yl)-2-(1-methyl-1H-1,2,4-triazol-5-yl)ethan-1-one] | 100
Cn1ncnc1CC(=O)N1CCC(c2noc(-c3ccc(Cl)c(Cl)c3)n2)CC1 [Compound 166, 1-(4-(5-(3,4-dichlorophenyl)-1,2,4-oxadiazol-3-yl)piperidin-1-yl)-2-(1-methyl-1H-1,2,4-triazol-5-yl)ethan-1-one] | 710
Cn1ncnc1CC(=O)N1CCC(c2nc(-c3ccc(Cl)cc3)no2)CC1 [Compound 167, 1-(4-(3-(4-chlorophenyl)-1,2,4-oxadiazol-5-yl)piperidin-1-yl)-2-(1-methyl-1H-1,2,4-triazol-5-yl)ethan-1-one] | 221
Cn1ncnc1CC(=O)N1CCC(n2nnc(-c3ccc(Cl)cc3)n2)CC1 [Compound 168, 1-(4-(5-(4-chlorophenyl)-2H-tetrazol-2-yl)piperidin-1-yl)-2-(1-methyl-1H-1,2,4-triazol-5-yl)ethan-1-one] | 472
Cn1ncnc1CC(=O)N1CCC(c2nc(-c3ccc(Cl)c(OC(F)(F)F)c3)no2)CC1 [Compound 169, 1-(4-(3-(4-chloro-3-(trifluoromethoxy)phenyl)-1,2,4-oxadiazol-5-yl)piperidin-1-yl)-2-(1-methyl-1H-1,2,4-triazol-5-yl)ethan-1-one] | 330
Cn1ncnc1CC(=O)N1CCC(c2nc(-c3ccc(OC(F)(F)F)cc3)no2)CC1 [Compound 170, 2-(1-methyl-1H-1,2,4-triazol-5-yl)-1-(4-(3-(4-(trifluoromethoxy)phenyl)-1,2,4-oxadiazol-5-yl)piperidin-1-yl)ethan-1-one] | 130
Cn1ncnc1CC(=O)N1CCC(n2nnc(-c3ccc(C(F)(F)F)cc3)n2)CC1 [Compound 171, 2-(1-methyl-1H-1,2,4-triazol-5-yl)-1-(4-(5-(4-(trifluoromethyl)phenyl)-2H-tetrazol-2-yl)piperidin-1-yl)ethan-1-one] | 963
Cn1ncnc1CC(=O)N1CCC(c2nc(-c3ccc(C(F)F)cc3)no2)CC1 [Compound 172, 1-(4-(3-(4-(difluoromethyl)phenyl)-1,2,4-oxadiazol-5-yl)piperidin-1-yl)-2-(1-methyl-1H-1,2,4-triazol-5-yl)ethan-1-one] | 2070
Cn1ncnc1CC(=O)N1CCC(c2noc(C34CC(F)(C3)C4)n2)CC1 [Compound 173, 1-(4-(5-(3-fluorobicyclo[1.1.1]pentan-1-yl)-1,2,4-oxadiazol-3-yl)piperidin-1-yl)-2-(1-methyl-1H-1,2,4-triazol-5-yl)ethan-1-one] | > 10000
Cn1ncnc1CC(=O)N1CCC(c2nc(-c3ccc(CF)cc3)no2)CC1 [Compound 174, 1-(4-(3-(4-(fluoromethyl)phenyl)-1,2,4-oxadiazol-5-yl)piperidin-1-yl)-2-(1-methyl-1H-1,2,4-triazol-5-yl)ethan-1-one] | 2260
Cn1ncnc1CC(=O)N1CCC(c2nc(-c3ccc(S(F)(F)(F)(F)F)cc3)no2)CC1 [Compound 175, 2-(1-methyl-1H-1,2,4-triazol-5-yl)-1-(4-(3-(4-(pentafluoro-16-sulfaneyl)phenyl)-1,2,4-oxadiazol-5-yl)piperidin-1-yl)ethan-1-one] | 1630
Cn1ncnc1CC(=O)N1CCC(c2nc(-c3ccc(Cl)c(F)c3)no2)CC1 [Compound 176, 1-(4-(3-(4-chloro-3-fluorophenyl)-1,2,4-oxadiazol-5-yl)piperidin-1-yl)-2-(1-methyl-1H-1,2,4-triazol-5-yl)ethan-1-one] | 115
Cn1ncnc1CC(=O)N1CCC(n2nnc(-c3ccc(Cl)c(F)c3)n2)CC1 [Compound 177, 1-(4-(5-(4-chloro-3-fluorophenyl)-2H-tetrazol-2-yl)piperidin-1-yl)-2-(1-methyl-1H-1,2,4-triazol-5-yl)ethan-1-one] | 170
Cn1ncnc1CC(=O)N1CCC(c2nc(-c3ccc(Cl)cc3F)no2)CC1 [Compound 178, 1-(4-(3-(4-chloro-2-fluorophenyl)-1,2,4-oxadiazol-5-yl)piperidin-1-yl)-2-(1-methyl-1H-1,2,4-triazol-5-yl)ethan-1-one] | 200
Cn1ncnc1CC(=O)N1CCC(c2nc(-c3ccc(F)cc3Cl)no2)CC1 [Compound 179, 1-(4-(3-(2-chloro-4-fluorophenyl)-1,2,4-oxadiazol-5-yl)piperidin-1-yl)-2-(1-methyl-1H-1,2,4-triazol-5-yl)ethan-1-one] | 1970
Cn1ncnc1CC(=O)N1CCC(c2nc(-c3ccc(F)cc3F)no2)CC1 [Compound 180, 1-(4-(3-(2,4-difluorophenyl)-1,2,4-oxadiazol-5-yl)piperidin-1-yl)-2-(1-methyl-1H-1,2,4-triazol-5-yl)ethan-1-one] | 480
Cn1ncnc1CC(=O)N1CCC(c2nc(-c3ccc(F)c(C(F)(F)F)c3)no2)CC1 [Compound 181] | 467
Cn1ncnc1CC(=O)N1CCC(n2nnc(-c3ccc(F)c(Cl)c3)n2)CC1 [Compound 182, 1-(4-(5-(3-chloro-4-fluorophenyl)-2H-tetrazol-2-yl)piperidin-1-yl)-2-(1-methyl-1H-1,2,4-triazol-5-yl)ethan-1-one] | 370
Cn1ncnc1CC(=O)N1CCC(c2nc(-c3ccc(F)c(Cl)c3)no2)CC1 [Compound 183, 1-(4-(3-(3-chloro-4-fluorophenyl)-1,2,4-oxadiazol-5-yl)piperidin-1-yl)-2-(1-methyl-1H-1,2,4-triazol-5-yl)ethan-1-one] | 210
Cn1ncnc1CC(=O)N1CCC(c2nc(-c3ccc(F)c(F)c3)no2)CC1 [Compound 184, 1-(4-(3-(3,4-difluorophenyl)-1,2,4-oxadiazol-5-yl)piperidin-1-yl)-2-(1-methyl-1H-1,2,4-triazol-5-yl)ethan-1-one] | 458
Cn1ncnc1CC(=O)N1CCC(n2nnc(-c3ccc(F)c(F)c3)n2)CC1 [Compound 185, 1-(4-(5-(3,4-difluorophenyl)-2H-tetrazol-2-yl)piperidin-1-yl)-2-(1-methyl-1H-1,2,4-triazol-5-yl)ethan-1-one] | 740
Cn1ncnc1CC(=O)N1CCC(c2nc(-c3ccc(F)cc3)no2)CC1 [Compound 186, 1-(4-(3-(4-fluorophenyl)-1,2,4-oxadiazol-5-yl)piperidin-1-yl)-2-(1-methyl-1H-1,2,4-triazol-5-yl)ethan-1-one] | 480
Cn1ncnc1CC(=O)N1CCC(n2nnc(-c3ccc(F)cc3)n2)CC1 [Compound 187, 1-(4-(5-(4-fluorophenyl)-2H-tetrazol-2-yl)piperidin-1-yl)-2-(1-methyl-1H-1,2,4-triazol-5-yl)ethan-1-one] | 3070
Cn1nnnc1CC(=O)N1CCC(c2nc(-c3ccc(F)cc3)no2)CC1 [Compound 188, 1-(4-(3-(4-fluorophenyl)-1,2,4-oxadiazol-5-yl)piperidin-1-yl)-2-(1-methyl-1H-tetrazol-5-yl)ethan-1-one] | 6330
